{"source": "paper PMC2709231", "about": "(European Journal of Nuclear Medicine and Molecular Imaging, 2009)", "origin": "cited, not measured here", "details": "human, in vivo", "data": [{"substance": "^90Y-DTPA-(D)Glu^1-(Glu)5-Ala-Tyr-Gly-Trp-Met-Asp-Phe-NH2 [^90Y-DTPA-DGlu^1-minigastrin]", "values": [{"measurement": "Side effects of radionuclide therapy", "result": "serious side effects, including renal insufficiency and bone marrow toxicity"}]}]}
